Experimental data taken from PubChem BioAssay (NCI).
Several values for one entry are separate records, joined by “and”; a condition that tells them apart may be missing. Equal values may be shown once.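 Test compounds were applied to cells in 96-well plates for 48 hours at 5 doses. Here, GI50 denotes the concentration required for 50% inhibition of growth. The concentration for full growth arrest is given as TGI.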

Columns and labels:
Test in all cases: inhibition of tumour cell growth, NCI panel, 48 h
[1] = tested on: CCRF-CEM leukemia
[2] = tested on: HOP-92 NSCLC
[3] = tested on: MDA-MB-435
[4] = tested on: NCI/ADR-RES ovarian
[5] = tested on: OVCAR-5 ovarian
[6] = tested on: OVCAR-8 ovarian
[7] = tested on: SK-MEL-28 melanoma
[8] = tested on: UACC-62 melanoma

Row | SMILES | GI50 [1] | TGI [1] [µM] | GI50 [2] | TGI [2] | GI50 [3] | TGI [3] | GI50 [4] | TGI [4] | GI50 [5] | TGI [5] | GI50 [6] | TGI [6] | GI50 [7] | TGI [7] | GI50 [8] | TGI [8]
1 | CC/C(=C(/c1ccc(O)cc1)c1ccc(OCCN2CCCCC2)cc1)c1ccc(OC)cc1 | 0.513 µM | 5.09 | 0.665 µM | 2.38 µM | 1.58 µM | 3.1 µM | 8.15 µM | 22.4 µM | 3.25 µM | 14.8 µM | 2.45 µM | 6.02 µM | 1.78 µM | 3.48 µM | 2.01 µM | 4.03 µM
2 | CSc1ncnc2c1ncn2C1OC(CO)C(O)OC1O (stereo not given) | – | 0.402 | – | 22.7 µM | – | 23.8 µM | – | > 93.1 µM | – | > 23.3 µM | – | 52.4 µM | – | 69.5 µM | – | 18.5 µM
3 | CCOC(=O)C(C)(C)C(O)C(C)C (stereo not given) | – | > 100 | – | > 100 µM | – | > 100 µM | – | > 100 µM | – | > 100 µM | – | > 100 µM | – | > 100 µM | – | > 100 µM
4 | CCc1cc2c(cc1N1CCC(N3CCOCC3)CC1)C(C)(C)c1[nH]c3cc(C#N)ccc3c1C2=O | 0.745 µM and 0.826 µM and 1.54 µM | > 100 | 0.386 µM and 0.179 µM and 0.576 µM | 3.54 µM and 1.23 µM and 4.84 µM | 1.46 µM and 1.34 µM and 2.1 µM | 5.97 µM and 5.53 µM and > 10 µM | 1.01 µM and 1.39 µM and 1.59 µM | 3.81 µM and 6.34 µM and 6.47 µM | 1.52 µM and 1.29 µM and 1.93 µM | 19.3 µM and 9.3 µM and > 10 µM | 0.648 µM and 0.935 µM and 1.3 µM | 2.48 µM and 3.11 µM and 3.57 µM | 1.95 µM and 1.87 µM and 2.32 µM | 4.48 µM and 4.04 µM and 6.75 µM | 3.17 µM and 3 µM and 2.64 µM | 18.1 µM and 13.7 µM and > 10 µM
5 | NC1=NCCN1CC(=O)O | > 10000 µM | > 10000 | > 10000 µM | > 10000 µM | > 10000 µM | > 10000 µM | > 10000 µM | > 10000 µM | > 10000 µM | > 10000 µM | > 10000 µM | > 10000 µM | > 10000 µM | > 10000 µM | > 10000 µM | > 10000 µM
6 | Nc1c(C(=O)c2ccc(CCCN3CCOCC3)cc2)cnn1-c1ccc(F)cc1 | > 25 µM | > 25 | 3.22 µM | > 25 µM | > 25 µM | > 25 µM | > 25 µM | > 25 µM | > 25 µM | > 25 µM | > 25 µM | > 25 µM | > 25 µM | > 25 µM | > 25 µM | > 25 µM
7 | COc1ccc(-c2c(-c3cc(OC)c(OC)c(OC)c3)noc2N)cc1 | 0.0307 µM | > 100 | < 0.01 µM | > 100 µM | < 0.01 µM | – | < 0.01 µM | 0.0226 µM | 0.0441 µM | > 70 µM | 0.0173 µM | 15.8 µM | 0.016 µM | > 100 µM | < 0.01 µM | > 65.2 µM
8 | O=C(CCC(C(=O)c1ccccc1)c1ccccc1)c1ccccc1 (stereo not given) | 3.97 µM | 77.2 | 3.4 µM | 72.2 µM | 2.01 µM | 6.03 µM | 4.74 µM | > 100 µM | 80.4 µM | > 100 µM | 21.6 µM | > 100 µM | 55.7 µM | > 100 µM | 7.15 µM | > 100 µM
9 | COC(=O)[C@H](Cc1ccc(O)cc1)NC(=O)[C@@H](OC)[C@@H]1Cc2cc3cc(OC4CC(OC5CC(O)C(O)C(C)O5)C(O)C(C)O4)c(C)c(O)c3c(O)c2C(=O)[C@H]1OC1CC(OC2CC(OC3CC(C)(O)C(O)C(C)O3)C(O)C(C)O2)C(O)C(C)O1 (stereo not given in full) | 0.111 µM | > 25 | 0.0387 µM | 7.15 µM | 0.0931 µM | 2.33 µM | > 25 µM | > 25 µM | 0.207 µM | > 25 µM | 0.166 µM | > 25 µM | 0.0348 µM | 0.598 µM | 0.0223 µM | 0.106 µM
10 | C/C(=C\COc1c2c(cc3c1CCO3)OC1(C=C2)OC(CC/C(C)=C/COc2c3ccoc3cc3oc(=O)ccc23)C(C)(C)O1)CCC(O)C(C)(C)O (stereo not given) | 8.78 µM | > 100 | 7.56 µM | > 100 µM | 36.4 µM | > 100 µM | 23.8 µM | > 100 µM | 80.2 µM | > 100 µM | 8.56 µM | > 100 µM | 16.9 µM | > 100 µM | 4.87 µM | > 100 µM
11 | CCCCCCCCCCCCCCCCOP(=O)(O)OP(=O)(O)OCC1OC(n2ccc(N)nc2=O)C(O)C1O (stereo not given) | – | > 100 | – | > 100 µM | – | > 100 µM | > 100 µM and 13.7 µM | > 100 µM | – | > 100 µM | – | > 100 µM | – | > 100 µM | > 100 µM and 21.3 µM | > 100 µM
12 | COc1ccc2c(c1OC)OCC(CN(C)C)C2=O (stereo not given) | – | 8.54 | – | 11.3 µM | – | 34.3 µM | – | 72.1 µM | – | 35.7 µM | – | 50.2 µM | – | 32.3 µM | – | 32.1 µM
13 | CC1=C([Te]c2ccc(O)cc2)C(=O)c2ccccc2C1=O | 0.806 µM | 4.38 | 1.09 µM | 2.75 µM | 2.35 µM | 5.79 µM | 2.42 µM | 8.3 µM | 2.44 µM | 7.75 µM | 2.4 µM | 8.34 µM | 2.41 µM | 6.09 µM | 1.6 µM | 4.01 µM
14 | Cc1cn2c(/C=N/N=C(N)N)c(-c3cccnc3)nc2s1 | 4.38 µM | 55 | 16.8 µM | 33.4 µM | 2.4 µM | 7.15 µM | 2.81 µM | 9.97 µM | 15.2 µM | 28.5 µM | 27.4 µM | 69 µM | 12.4 µM | 26.3 µM | 11 µM | 23.6 µM
15 | Cc1ncsc1-c1ccc(CNC(=O)[C@@H]2C[C@@H](O)CN2C(=O)[C@@H](NC(=O)C2(C#N)CC2)C(C)(C)C)cc1 | > 100 µM | > 100 | 70.4 µM | > 100 µM | > 100 µM | > 100 µM | > 100 µM | > 100 µM | > 100 µM | > 100 µM | > 100 µM | > 100 µM | > 100 µM | > 100 µM | 62.6 µM | > 100 µM
16 | CCN(CC)CCCC(C)N=c1cc(Nc2cc(=NC(C)CCCN(CC)CC)c3cc(OC)ccc3o2)oc2ccc(OC)cc12 (stereo not given) | 2 µM | 16.3 | 0.513 µM | 3.15 µM | 0.871 µM | 1.68 µM | 2.09 µM | 15.3 µM | 0.89 µM | 2.38 µM | 0.441 µM | 3.78 µM | 0.838 µM | 1.52 µM | 1.04 µM | 2.39 µM
